Reference: patent publication US11135163B2, “Peptide hydrogel properties and its applications” (Kansas State University Research Foundation, priority 2014, dated 2021)
Where two headings read alike, the source gives them in different places.

What was measured:
[1] = h9e-2i medium hydrogel rheology and stability; format: physicochemical
Experimental: Two different types of stem cell mediums were selected for this test. One is a low glucose DMEM medium with 2% (v/v) Fetal Bovine Serum (FBS) for Mesenchymal Stromal Cell (MSC medium). The other one is a N2B27 supplemented serum-free 2i medium with 0.5% (v/v) Bovine Serum Albumin (BSA) for rat Embryonic Stem Cell (ESC, 2i medium). The hydrogel formation process was monitored under a time sweep rheological test for 1 hour. The special shear-thinning and self-healing property of h9e peptide hydrogel was also tested. […] In addition, the stability of hydrogel as well as the peptide solution before the hydrogel formation was also tested.
The h9e peptide was synthesized according to the method mentioned above. Lyophilized peptide was added to 100 mM sodium bicarbonate and completely dissolved by magnetic stirring for 3 hours with a final peptide concentration of 10 mM. For hydrogelation, peptide solution was added into MSC medium or 2i medium and the mixture was hand-shaken for about 10 seconds or gently pipette mixed 3 times. The final peptide concentrations were 1, 2, and 3 mM.
The storage and loss moduli (G′ and G″, respectively) of h9e hydrogels were determined on a C-VOR 150 rheometer system (Malvern instruments, Malvern, Worcestershire WR141XZ, United Kingdom) with a 20-mm diameter parallel plate geometry and 500 μm gap size at 37° C. The methods for hydrogel formation test and shear-thinning and self-healing test were the same as the methods of cancer cell medium mentioned above. After 24 hours of hydrogel formation, 2 mM peptide hydrogel was diluted 20 fold by adding cell culture medium and thorough mixing by pipette. The diluted solution was transferred to rheometer system and tested under 1 Hz frequency and 1% shear strain at 4° C. for 1 hour.
The stability of h9e-2i medium hydrogel was tested. A plastic tray was placed on the bottom of the well plate. Next, 1 wt % h9e solution was mixed with 2i medium at 1:1 (v:v) ratio in a centrifuge tube and then transferred into the well plate. There was 500 μl peptide hydrogel for each well. The well plate was then placed in an incubator for 1 hour. After hydrogel was stable, another 500 μl of 2i medium was slowly added on the top of hydrogel. The top medium was replaced every other day. For mechanical testing, the top 2i medium was removed and hydrogel was transferred to a dynamic rheometer using the tray. The stability of the peptide solution was also tested using 1 wt % peptide solution stored in 4° C. refrigerator for up to 24 days. Part of the peptide solution was taken out and mixed with 2i medium with 1:1 (v:v) ratio on days 1, 6, 18 and 24. The hydrogel formation process was monitored under the single frequency (1 Hz) rheological test with 1% shear strain for 1 hour.

Rat ESCs and iPSCs = assay: Stem cell 3D culture in h9e hydrogel; format: cell-based
From the text: Rat PSCs: Animal use was approved by the KSU Institutional Animal Care and Use Committee (protocol #3168). Rat ESCs were derived in-house from Dark Agouti rats and characterized following the methods described in previous studies. Low passage ESCs were thawed, expanded one passage in 2D on MEF feeders, and then used in these experiments. Rat iPSCs were generated from Fischer 344 rat embryonic fibroblasts using a mouse OKSM STEMCCA lentiviral reprogramming vector according to the manufacturer's protocol (Millipore, SCR513).
3D cell culture: We adapted the techniques used previously to encapsulate breast cancer cells in 3D described in previous studies. This was done by using the regular h9e peptide hydrogel (1% wt=6 mM) in an aqueous solution. The peptide hydrogel-medium was prepared by directly mixing the aqueous h9e peptide solution with concentrated 2i plus LIF medium at 1:1 ratios for a final peptide concentration of 3 mM (600 Pa). […] Specifically, medium was made at 1.2× concentration for the 1:5 dilution, […] for the […] and 2× for the 1:1 dilution in the three h9e hydrogel concentrations. After mixing, the cells were added and the mixture was immediately added to the dish slowly to avoid air bubbles. The plates were then incubated for 30 min at 37° C. to permit gelation. To feed, 1× concentration 2i plus LIF medium was added slowly to the top of the hydrogel. To pass, the media was pipetted up and down by adding 1-2 ml of PBS more forcefully to shear the gel, and the liquefied contents were then added to a tube and diluted to a concentration that was below that which permitted gelation. The colonies were pelleted by low speed centrifugation (100×g for 5 min at room temperature), washed with calcium and magnesium free PBS, and then trypsinized to single cells by addition of trypsin EDTA for 5 min. Enzymatic reaction was terminated by dilution with PBS and 2 washing steps. The PSCs were suspended in a small volume of medium, added to the 1× hydrogel-medium solution, and re-plated at the desired concentration. Alkaline phosphatase staining, Immunofluorescence staining: Karyotyping, Embryoid body formation, Gene expression analysis were performed to determine the differentiation properties.

stability of h9e solution [1]: exceed 2 months | G′ ([1]; 1 mM h9e-2i hydrogel): about 100 Pa | G′ after shearing into liquid state ([1]; 2 mM h9e-2i hydrogel): < 0.2 Pa | stable G′ ([1]; 2 mM h9e-2i hydrogel): 600 Pa | mechanical strength restored ([1]; 2 mM h9e-2i hydrogel, within a few minutes of recovery test): 100% | stable G′ ([1]; 3 mM h9e-2i hydrogel): 600 Pa | G′ of h9e-2i hydrogel during 7 days (stability) ([1]; 1 wt % h9e solution mixed 1:1 with 2i medium): 130-160 Pa | stability of h9e solution ([1]; stored at 4° C. for 24 days, then mixed with 2i medium): could still form a hydrogel
Substance: H-FLIVIGSIIGPGGDGPGGD-NH2 [h9e, FLIVIGSIIGPGGDGPGGD]
serial passages maintained in the undifferentiated state (Oct4, Nanog, Sox2, SSEA-1 staining) (Rat ESCs and iPSCs; 3 mM h9e hydrogel, 3D culture): at least 25 serial passages | proliferation of encapsulated rat pluripotent stem cells (Rat ESCs and iPSCs; 3 mM hydrogel): proliferated well | alkaline phosphatase staining after more than 25 passages (Rat ESCs and iPSCs; 3D culture in hydrogel): not affected | spontaneous differentiation on the colony edges (Rat ESCs and iPSCs; rat ESC or rat iPSC cultures): never observed
